Data taken from patent US11952362B2, “Compositions and methods for treating epigenetic disease” (The Regents of the University of California, priority 2018, dated 2024).

Test system: TNBS colitis
Assay: TNBS colitis in mice
Assay type: in vivo
Conditions: for overall score: overall efficacy
Method: Male C57BL/6J mice 8-10 weeks old were purchased from The Jackson Laboratory (Sacramento, CA, USA). Mice were housed 4 per cage, maintained on a 12:12 hour light-dark cycle and given access to food and water ad libitum. Following an acclimatization period of 3 to 5 days, trinitrobenzene sulfonic acid (TNBS, Millipore Sigma, St. Louis, MO, USA) colitis was induced by intracolonic (i.c.) injection of 0.05 ml TNBS solution (5 mg in 40% ethanol) via a polyethylene cannula (BD Intramedic PE-20 tubing, Thermo Fisher Scientific, Santa Clara, CA, USA) inserted 3.5 cm from the anal verge under isoflurane anesthesia (4% in O2 induction, 2.5-3% maintenance). Control mice received an injection of 40% ethanol (0.05 ml, i.c.). To test the effectiveness of the HDAC analogs, mice received a daily injection (0.1 ml, i.c.) of a selective HDAC class II inhibitor analog (50 mg/kg MJK001-013) or vehicle (5% dimethyl sulfoxide, Millipore Sigma) beginning one day prior to TNBS colitis induction (day −1) for a period of 5 days. Separate groups of mice received HDAC inhibitors or vehicle administered by daily oral gavage (50 mg/kg, 0.25 ml, p.o.). All analogs tested were first dissolved in dimethyl sulfoxide (DMSO) with rapid vortexing and subsequent dilution to 5% in sterile phosphate buffered saline (PBS; Gibco, Thermo Fisher Scientific). Vehicle contained 5% DMSO in sterile PBS. Prior to use, all solids were stored in amber (light-blocking) storage vials at 4° C. On the first day of administration, stock solutions were prepared, aliquoted and stored at −20° C. for daily use. Upon thawing, each aliquot was vortexed prior to intracolonic injection (via a polyethylene cannula) or oral gavage (20 ga×38 mm, Instech, Thermo Fisher Scientific). Following all in vivo experiments, animals were euthanized on day 4 by CO2 inhalation and cervical dislocation and the distal colons removed for further study.
Disease severity was assessed by weight loss and measurement of colon length and determination of clinical and histological damage scores on day 4 of the protocol. Briefly, clinical scores were calculated on a scale of 0-3 for degree of weight loss, bleeding, stool consistency and presence of rectal prolapse. Sections of colon (5 μm) fixed in 10% formalin, paraffin-embedded and stained with hematoxylin and eosin (H&E) were used for histological scoring using an AxioImager. Z1 microscope equipped with AxioVision software version 4.6 (Zeiss, Jena, Germany). Scoring was performed by two independent investigators blinded to the treatment conditions and resulting scores averaged. Scores were assigned based on the degree of crypt damage (0-4), polymorphonuclear neutrophil (PMN) infiltrate (0-3), erosion (0-3), and edema (0-3).
Statistical analyses were performed using GraphPad Prism (Version 5.0a; GraphPad Software, La Jolla, CA, USA). Differences were determined by unpaired t-test, 1-way analysis of variance, or a 2-way analysis of variance with Tukey's post-test. A p value <0.05 was considered to be statistically significant. Data presented are means±SEM for n animals.
Novel chemical HDAC inhibitors were developed aiming to target specific isoforms of the HDAC Class IIA members. Overall, as shown above, compounds have been synthesized, named MJK-001, -002, -003, -004, -005, -006, -007, -008, -009, -010, -011, -012 & -013. The effect of selective HDAC class IIA isoform inhibition during development of colitis in mice in vivo during TNBS administration was assessed. This mouse model is known to recapitulate many features of human Crohn's Disease. Mice received either an intracolonic (i.c.) injection or oral delivery (p.o.) of the MJK compounds once daily for a period of 5 days and health status, weight loss, and disease activity were monitored. Mice (male C57BL/6J, 8-10 wks old) are weighed and monitored daily. On the final day, blood, feces, and colonic samples for RNA, protein and histology are collected for downstream analysis. […]

[1] = i.c. administration, 50 mg/kg daily for 5 days, day 4, vs vehicle-treated mice, 50 mg/kg
[2] = i.c. administration, 50 mg/kg daily for 5 days, day 4, vs vehicle-treated mice, listed as MJK-004, 50 mg/kg
[3] = i.c. administration, 50 mg/kg daily for 5 days, day 4, vs vehicle-treated mice, listed as MJK-001, 50 mg/kg
[4] = i.c. administration, 50 mg/kg daily for 5 days, day 4, vs vehicle-treated mice, hydrochloride, 50 mg/kg
[5] = i.c. administration, 50 mg/kg daily for 5 days, day 4, vs vehicle-treated mice, listed as MJK-008, hydrochloride, 50 mg/kg
[6] = oral administration (p.o., 50 mg/kg daily)

Cn1c(/C=C/C(=O)NO)ccc1/C=C/C(=O)c1cccnc1 [MJK006, (E)-N-hydroxy-3-(1-methyl-5-((E)-3-oxo-3-(pyridin-3-yl)prop-1-en-1-yl)-1H-pyrrol-2-yl)acrylamide]
clinical score [1]: ♦♦ | colon length [1]: ♦♦ | histological score [1]: ♦♦♦ | histological score (i.c. administration, 50 mg/kg daily for 5 days, day 4, vs vehicle-treated mice, listed as MJK-006, 50 mg/kg): significant differences | overall score (i.c. administration): substantial effect on suppressing TNBS-induced colitis

Cn1c(/C=C/C(=O)NO)ccc1/C=C/C(=O)c1cccs1 [MJK004, (E)-N-hydroxy-3-(1-methyl-5-((E)-3-oxo-3-(thiophen-2-yl)prop-1-en-1-yl)-1H-pyrrol-2-yl)acrylamide]
clinical score [1]: ♦♦ | colon length [1]: ns | clinical score [2]: reduction in clinical scoring | colon length [2]: did not alter colon length

Cn1c(/C=C/C(=O)NO)ccc1/C=C/C(=O)c1cccc(F)c1 [MJK001, (E)-3-(5-((E)-3-(3-Fluorophenyl)-3-oxoprop-1-en-1-yl)-1-methyl-1H-pyrrol-2-yl)-N-hydro-xyacrylamide]
histological score (i.c. administration, 50 mg/kg daily for 5 days, day 4, vs vehicle-treated mice): ♦♦ | clinical score [1]: ♦♦ | colon length [1]: ♦♦ | clinical score [3]: statistical significance in the reduction of the clinical score | colon length [3]: increase of colon length

Cl.Cn1c(/C=C/C(=O)NO)ccc1/C=C/C(=O)c1cccnc1 [MJK008, (E)-N-Hydroxy-3-(1-methyl-5-((E)-3-oxo-3-(pyridin-3-yl)prop-1-en-1-yl)-1H-pyrrol-2-yl)ac-rylamide hydrochloride]
clinical score [4]: ♦♦ | colon length [4]: ♦ | histological score [4]: ♦♦♦ | clinical score [5]: decreasing the clinical and histological score | colon length [5]: significant effect in preserving colon length | histological score [5]: decreasing the clinical and histological score | overall score (i.c. administration, hydrochloride): substantial effect on suppressing TNBS-induced colitis | clinical score [6]: highly efficient in reducing the clinical score | colon length [6]: preserving colon length | histology score [6]: decreasing the histology score
